System: Exophiala dermatitidis CA01
Assay: Broth microdilution chequerboard analysis of Lynovex (NM001) in combination with clinical antifungals
Assay type: cell-based
Conditions: 35° C.; for MIC50: Exophiala dermatitidis, NM001 in isolation
Protocol: The aim of the experiment was to determine the effect of Lynovex (NM001) on the antifungal drug susceptibility of Exophiala dermatitidis CA01. Microtitre plates were prepared following CLSI recommendations for broth microdilution chequerboard method. These plates contained a serial doubling dilution of Lynovex (NM001) combined with serial doubling dilutions of antifungals drugs; Fluconazole, Itraconazole, Caspofungin and Amphotericin B. […] These were incubated at 35° C. and read at 72 h, 96 h, 120 h and 144 h on the BioTek plate reader. […] Three independent E. dermatitidis CA01 cultures were grown on PDA slope for 6 days at 35° C. • 7. Cultures were removed from incubator. 2 ml sterile 0.15M NaCl added to the overnight culture and cells harvested from the surface of the agar. Cells placed in fresh bijou tube. • 8. The cultures were allowed to rest for up to 10 minutes, allowing any hyphae to settle to the bottom. The top layer of conidia was removed into fresh bijou. Hyphae were discarded. • 9. […] This is continued to F12 where 100 μl is removed and discarded. • f. This dilution series was repeated in rows G-H for the remaining 2 cultures • g. Plate read at OD530 on BioTek • h. […] This preparation step occurs in two parts. First, Lynovex (NM001) and antifungals are serially diluted, down and across microtitre plates, respectively. Equal volumes of Lynovex and antifungal are then combined in a fresh microtitre plate, prior to inoculation. […] Stock solutions of Lynovex and antifungals were prepared at 4× desired concentrations. The plate layout at the end of this protocol is the final concentration in the plate following the combination of Lynovex and antifungals and the addition of the inocula. […] All other wells contain 150 μl sterile dH2O. • 9. Serial doubling dilutions are carried out from A to B whereby 150 μl is removed from A and placed into B and mixed well. Then take 150 μl B and place in C and mix well. This is repeated down to row G where the final 150 μl is discarded. […] The same procedure is repeated for the other 4 antifungals, carrying the dilutions across the plate i.e. […] At the final dilution in column 10, the final 150 μl is discarded. […] Inoculating Plates with E. dermatitidis CA01 • 6. Add 100 μl (total volume 200 μl) of the prepared E. dermatitidis CA01 culture to the all wells on the plate except wells H12. […] H12 will contain 100 μl water and 100 μl 2×RPMI-1640 alone, constituting an uninoculated control. • 8. The plate is read in the BioTek at OD530. • 9. Plates are then placed in a plastic box containing a Petri dish of water, sealed and incubated at 35° C. The presence of the water in the dish or on the tissue provides and environment of relatively high humidity. • 10. OD530 is then read at 72 h, 96 h, 120 h and 144 h and raw data processed using Microsoft Excel. • 11. Fractional Inhibitory Concentration (FIC) Index values are generated using MIC100 for 72 h data and MIC50 for later time points using the following formula: […]

MIC50 (CA01, 72 h, GEOMEAN, Amphotericin B chequerboard, 72 h): 461 µg/mL
MIC50 (CA01, 72 h, GEOMEAN, Caspofungin chequerboard, 72 h): 1250 µg/mL
MIC50 (CA01, 72 h, GEOMEAN, Fluconazole chequerboard, 72 h): 1250 µg/mL
MIC50 (CA01, 72 h, GEOMEAN, Itraconazole chequerboard, 72 h): 1250 µg/mL
MIC50 (CA01, 72 h, MEAN, Amphotericin B chequerboard, 72 h): 667 µg/mL
MIC50 (CA01, 72 h, MEAN, Caspofungin chequerboard, 72 h): 1460 µg/mL
MIC50 (CA01, 72 h, MEAN, Fluconazole chequerboard, 72 h): 1250 µg/mL
MIC50 (CA01, 72 h, MEAN, Itraconazole chequerboard, 72 h): 1510 µg/mL
MIC50 (CA01, 72 h, Range, Amphotericin B chequerboard, 72 h): 125 to 1250 µg/mL
MIC50 (CA01, 72 h, Range, Caspofungin chequerboard, 72 h): 625 to 2500 µg/mL
MIC50 (CA01, 72 h, Range, Fluconazole chequerboard, 72 h): 1250 µg/mL
MIC50 (CA01, 72 h, Range, Itraconazole chequerboard, 72 h): 312 to 2500 µg/mL
MIC50 (CA01, 96 h, GEOMEAN, Amphotericin B chequerboard, 96 h): 625 µg/mL
MIC50 (CA01, 96 h, GEOMEAN, Caspofungin chequerboard, 96 h): 1090 µg/mL
MIC50 (CA01, 96 h, GEOMEAN, Fluconazole chequerboard, 96 h): 787 µg/mL
MIC50 (CA01, 96 h, GEOMEAN, Itraconazole chequerboard, 96 h): 1130 µg/mL
MIC50 (CA01, 96 h, MEAN, Amphotericin B chequerboard, 96 h): 885 µg/mL
MIC50 (CA01, 96 h, MEAN, Caspofungin chequerboard, 96 h): 1530 µg/mL
MIC50 (CA01, 96 h, MEAN, Fluconazole chequerboard, 96 h): 885 µg/mL
MIC50 (CA01, 96 h, MEAN, Itraconazole chequerboard, 96 h): 1520 µg/mL
MIC50 (CA01, 96 h, Range, Amphotericin B chequerboard, 96 h): 156 to 1250 µg/mL
MIC50 (CA01, 96 h, Range, Caspofungin chequerboard, 96 h): 156 to 2500 µg/mL
MIC50 (CA01, 96 h, Range, Fluconazole chequerboard, 96 h): 312 to 1250 µg/mL
MIC50 (CA01, 96 h, Range, Itraconazole chequerboard, 96 h): 312 to 2500 µg/mL
MIC50 (CA01, 120 h, GEOMEAN, Amphotericin B chequerboard, 120 h): 743 µg/mL
MIC50 (CA01, 120 h, GEOMEAN, Caspofungin chequerboard, 120 h): 1440 µg/mL
MIC50 (CA01, 120 h, GEOMEAN, Fluconazole chequerboard, 120 h): 1770 µg/mL
MIC50 (CA01, 120 h, GEOMEAN, Itraconazole chequerboard, 120 h): 1250 µg/mL
MIC50 (CA01, 120 h, MEAN, Amphotericin B chequerboard, 120 h): 977 µg/mL
MIC50 (CA01, 120 h, MEAN, Caspofungin chequerboard, 120 h): 1750 µg/mL
MIC50 (CA01, 120 h, MEAN, Fluconazole chequerboard, 120 h): 1880 µg/mL
MIC50 (CA01, 120 h, MEAN, Itraconazole chequerboard, 120 h): 1500 µg/mL
MIC50 (CA01, 120 h, Range, Amphotericin B chequerboard, 120 h): 156 to 1250 µg/mL
MIC50 (CA01, 120 h, Range, Caspofungin chequerboard, 120 h): 625 to 2500 µg/mL
MIC50 (CA01, 120 h, Range, Fluconazole chequerboard, 120 h): 1250 to 2500 µg/mL
MIC50 (CA01, 120 h, Range, Itraconazole chequerboard, 120 h): 625 to 2500 µg/mL
MIC50 (CA01, 144 h, GEOMEAN, Amphotericin B chequerboard, 144 h): 787 µg/mL
MIC50 (CA01, 144 h, GEOMEAN, Caspofungin chequerboard, 144 h): 1580 µg/mL
MIC50 (CA01, 144 h, GEOMEAN, Fluconazole chequerboard, 144 h): 1490 µg/mL
MIC50 (CA01, 144 h, GEOMEAN, Itraconazole chequerboard, 144 h): 1770 µg/mL
MIC50 (CA01, 144 h, MEAN, Amphotericin B chequerboard, 144 h): 1300 µg/mL
MIC50 (CA01, 144 h, MEAN, Caspofungin chequerboard, 144 h): 1880 µg/mL
MIC50 (CA01, 144 h, MEAN, Fluconazole chequerboard, 144 h): 1720 µg/mL
MIC50 (CA01, 144 h, MEAN, Itraconazole chequerboard, 144 h): 2030 µg/mL
MIC50 (CA01, 144 h, Range, Amphotericin B chequerboard, 144 h): 156 to 2500 µg/mL
MIC50 (CA01, 144 h, Range, Caspofungin chequerboard, 144 h): 625 to 2500 µg/mL
MIC50 (CA01, 144 h, Range, Fluconazole chequerboard, 144 h): 625 to 2500 µg/mL
MIC50 (CA01, 144 h, Range, Itraconazole chequerboard, 144 h): 625 to 2500 µg/mL
NM001 MIC100 in Combination (GEOMEAN, in combination with Amphotericin B, 72 h): 39 µg/mL
NM001 MIC50 in Combination (GEOMEAN, in combination with Amphotericin B, 96 h): 55 µg/mL
NM001 MIC50 in Combination (GEOMEAN, in combination with Amphotericin B, 120 h): 156 µg/mL
NM001 MIC50 in Combination (GEOMEAN, in combination with Amphotericin B, 144 h): 442 µg/mL
NM001 MIC100 in Combination (GEOMEAN, in combination with Caspofungin, 72 h): 78 µg/mL
NM001 MIC50 in Combination (GEOMEAN, in combination with Caspofungin, 96 h): 90 µg/mL
NM001 MIC50 in Combination (GEOMEAN, in combination with Caspofungin, 120 h): 118 µg/mL
NM001 MIC50 in Combination (GEOMEAN, in combination with Caspofungin, 144 h): 394 µg/mL
NM001 MIC100 in Combination (GEOMEAN, in combination with Fluconazole, 72 h): 312.5 µg/mL
NM001 MIC50 in Combination (GEOMEAN, in combination with Fluconazole, 96 h): 139 µg/mL
NM001 MIC50 in Combination (GEOMEAN, in combination with Fluconazole, 120 h): 263 µg/mL
NM001 MIC50 in Combination (GEOMEAN, in combination with Fluconazole, 144 h): 263 µg/mL
NM001 MIC100 in Combination (GEOMEAN, in combination with Itraconazole, 72 h): 179 µg/mL
NM001 MIC50 in Combination (GEOMEAN, in combination with Itraconazole, 96 h): 78 µg/mL
NM001 MIC50 in Combination (GEOMEAN, in combination with Itraconazole, 120 h): 136 µg/mL
NM001 MIC50 in Combination (GEOMEAN, in combination with Itraconazole, 144 h): 197 µg/mL
NM001 MIC100 in Combination (MEAN, in combination with Amphotericin B, 72 h): 39 µg/mL
NM001 MIC50 in Combination (MEAN, in combination with Amphotericin B, 96 h): 59 µg/mL
NM001 MIC50 in Combination (MEAN, in combination with Amphotericin B, 120 h): 221 µg/mL
NM001 MIC50 in Combination (MEAN, in combination with Amphotericin B, 144 h): 469 µg/mL
NM001 MIC100 in Combination (MEAN, in combination with Caspofungin, 72 h): 78 µg/mL
NM001 MIC50 in Combination (MEAN, in combination with Caspofungin, 96 h): 102 µg/mL
NM001 MIC50 in Combination (MEAN, in combination with Caspofungin, 120 h): 148 µg/mL
NM001 MIC50 in Combination (MEAN, in combination with Caspofungin, 144 h): 417 µg/mL
NM001 MIC100 in Combination (MEAN, in combination with Fluconazole, 72 h): 365 µg/mL
NM001 MIC50 in Combination (MEAN, in combination with Fluconazole, 96 h): 176 µg/mL
NM001 MIC50 in Combination (MEAN, in combination with Fluconazole, 120 h): 312.5 µg/mL
NM001 MIC50 in Combination (MEAN, in combination with Fluconazole, 144 h): 400 µg/mL
NM001 MIC100 in Combination (MEAN, in combination with Itraconazole, 72 h): 203 µg/mL
NM001 MIC50 in Combination (MEAN, in combination with Itraconazole, 96 h): 89 µg/mL
NM001 MIC50 in Combination (MEAN, in combination with Itraconazole, 120 h): 156.25 µg/mL
NM001 MIC50 in Combination (MEAN, in combination with Itraconazole, 144 h): 208 µg/mL
NM001 MIC100 in Combination (Range, in combination with Amphotericin B, 72 h): 39 µg/mL
NM001 MIC50 in Combination (Range, in combination with Amphotericin B, 96 h): 39.0625 to 78.125 µg/mL
NM001 MIC50 in Combination (Range, in combination with Amphotericin B, 120 h): 39.06 to 312.5 µg/mL
NM001 MIC50 in Combination (Range, in combination with Amphotericin B, 144 h): 312.5 to 625 µg/mL
NM001 MIC100 in Combination (Range, in combination with Caspofungin, 72 h): 78 µg/mL
NM001 MIC50 in Combination (Range, in combination with Caspofungin, 96 h): 39.0625 to 156.25 µg/mL
NM001 MIC50 in Combination (Range, in combination with Caspofungin, 120 h): 39.06 to 312.5 µg/mL
NM001 MIC50 in Combination (Range, in combination with Caspofungin, 144 h): 312.5 to 625 µg/mL
NM001 MIC100 in Combination (Range, in combination with Fluconazole, 72 h): 156 to 625 µg/mL
NM001 MIC50 in Combination (Range, in combination with Fluconazole, 96 h): 39.06 to 156.25 µg/mL
NM001 MIC50 in Combination (Range, in combination with Fluconazole, 120 h): 156.25 to 625 µg/mL
NM001 MIC50 in Combination (Range, in combination with Fluconazole, 144 h): 39.0625 to 625 µg/mL
NM001 MIC100 in Combination (Range, in combination with Itraconazole, 72 h): 78 to 312.5 µg/mL
NM001 MIC50 in Combination (Range, in combination with Itraconazole, 96 h): 39.06 to 156.25 µg/mL
NM001 MIC50 in Combination (Range, in combination with Itraconazole, 120 h): 78.13 to 312.5 µg/mL
NM001 MIC50 in Combination (Range, in combination with Itraconazole, 144 h): 156.25 to 312.5 µg/mL
SMILES: NCCS [NM001, cysteamine]

Reference: US20160102052A1, “Use of Cysteamine in Treating Infections caused by Yeasts/Moulds” (priority 2014, published 2016)
